In the supplement of paper PMC10307832:

What was measured:
Test in all cases: relative viability (nuclei count vs DMSO), 5 days (fraction); higher = more cells survive
[1] = compound: C1=CC2=NC=CN=C2C=C1/C=C/3\C(=O)NC(=O)S3 + Cc1nc(Nc2ncc(C(=O)Nc3c(C)cccc3Cl)s2)cc(N2CCN(CCO)CC2)n1 [Dasatinib] (partner 0.075 µM)
Method in brief: (§1)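 Lung cancer cell lines in 1536-well plates were dosed by pin tool the day after seeding, either with one drug alone or with a fixed anchor-drug dose plus five library-drug doses (not always all listed) in √10 steps. After 5 days, cells were fixed and their nuclei stained in one step (final 0.05% Triton X-100, 1% formaldehyde, 1 ug/ml Hoechst), then counted on 4× images. Relative viability is the nuclei count in treated wells divided by that in vehicle wells. Values are medians of duplicate plates.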

[2] = compound: CCN1CCN(c2ccc(Nc3cc(N(C)C(=O)Nc4c(Cl)c(OC)cc(OC)c4Cl)ncn3)cc2)CC1 [BGJ398] + C[C@@H](Oc1cc(-c2cnn(C3CCNCC3)c2)cnc1N)c1c(Cl)ccc(F)c1Cl [Crizotinib] (partner 1 µM)
Method in brief: as §1

[3] = compound: CCN1CCN(c2ccc(Nc3cc(N(C)C(=O)Nc4c(Cl)c(OC)cc(OC)c4Cl)ncn3)cc2)CC1 [BGJ398] + O=C(c1cc(Cc2n[nH]c(=O)c3ccccc23)ccc1F)N1CCN(C(=O)C2CC2)CC1 [Olaparib] (partner 8 µM)
Method in brief: as §1

[4] = compound: C1=CC2=NC=CN=C2C=C1/C=C/3\C(=O)NC(=O)S3 + CS(=O)(=O)CCNCc1ccc(-c2ccc3ncnc(Nc4ccc(OCc5cccc(F)c5)c(Cl)c4)c3c2)o1 [Lapatinib] (partner 2 µM)
Method in brief: as §1

Cell Line	relative viability ([1]; first compound 0.02 µM)	relative viability ([1]; first compound 0.06325 µM)	relative viability ([1]; first compound 0.2 µM)	relative viability ([1]; first compound 0.6325 µM)	relative viability ([1]; first compound 2 µM)	relative viability ([2]; first compound 0.01 µM)	relative viability ([2]; first compound 0.03162 µM)	relative viability ([2]; first compound 0.1 µM)	relative viability ([2]; first compound 0.3162 µM)	relative viability ([2]; first compound 1 µM)	relative viability ([3]; first compound 0.01 µM)	relative viability ([3]; first compound 0.03162 µM)	relative viability ([3]; first compound 0.1 µM)	relative viability ([3]; first compound 0.3162 µM)	relative viability ([3]; first compound 1 µM)	relative viability ([4]; first compound 0.02 µM)	relative viability ([4]; first compound 0.06325 µM)	relative viability ([4]; first compound 0.2 µM)	relative viability ([4]; first compound 0.6325 µM)	relative viability ([4]; first compound 2 µM)
LU99A	0.576	0.922	0.462	0.508	0.287	0.532	0.49	0.595	0.525	0.479	0.266	0.26	0.281	0.276	0.292	0.976	1.06	1.07	0.854	0.645
LXF-289	0.192	0.176	0.254	0.215	0.0852	0.817	0.764	0.761	0.705	0.637	1.01	0.973	1.17	0.919	1.07	0.829	0.932	0.883	0.857	0.908
NCI-H23	0.703	0.976	0.715	0.754	0.29	0.531	0.539	0.486	0.58	0.566	0.333	0.297	0.303	0.371	0.268	0.887	1.12	1.07	1.15	0.759
NCI-H322M	0.274	0.27	0.269	0.239	0.238	1.04	0.77	0.956	0.961	1.1	0.801	0.73	0.761	0.758	0.815	0.428	0.573	0.61	0.656	0.368
NCI-H358	0.151	0.202	0.167	0.14	0.105	0.631	0.779	0.533	0.574	0.722	0.744	0.622	0.619	0.698	0.584	0.554	0.497	0.461	0.359	0.274
NCI-H460	0.53	0.782	0.477	0.362	0.0894	0.59	0.861	1.02	0.892	0.826	0.39	0.42	0.428	0.414	0.381	0.832	1.15	1.03	0.815	0.689
NCI-H520	0.181	0.229	0.217	0.161	0.151	0.829	0.72	0.395	0.456	0.281	0.265	0.355	0.314	0.202	0.238	0.842	0.92	0.832	0.757	0.882
NCI-H596	0.67	0.588	0.62	0.528	0.427	0.935	0.843	0.883	0.944	0.794	0.674	0.648	0.645	0.626	0.667	1.1	1.25	1.04	1.06	1.04
NCI-H647	0.173	0.259	0.256	0.149	0.103	1.03	1.01	1.16	1.06	1.03	0.51	0.643	0.694	0.521	0.603	1.06	1.75	1.15	0.957	0.903
NCI-H650	0.524	0.468	0.561	0.415	0.286	0.57	0.791	0.808	0.857	0.727	0.358	0.413	0.377	0.375	0.365	1.13	1.1	1.09	0.835	0.5
NCI-H661	1.03	1.12	0.935	0.748	0.722	–	0.94	0.926	0.983	0.916	0.7	0.737	0.822	0.736	0.727	0.46	0.495	0.464	0.45	0.39
NCI-H727	0.488	0.362	0.355	0.378	0.24	0.809	0.853	0.795	0.857	0.711	0.707	0.629	0.717	0.653	0.641	0.803	0.706	0.918	0.795	0.297
NCI-H838	0.278	0.179	0.311	0.257	0.187	0.804	0.837	0.781	0.782	0.652	0.731	0.754	0.749	0.741	0.667	1.06	1.09	0.969	0.827	0.707
